Results reported in US5583108A, “Vasonatrin peptide and analogs thereof” (Mayo Foundation for Medical Education and Research, priority 1994, dated 1996).

Experiments:
[1] = tested on: isolated normal canine blood vessels; test: Organ chamber isometric force: relaxation of phenylephrine-contracted vessel rings; parameters: species or system dog; settings: for relaxation: maximal dose (3×10^-6 M); for maximal response, percent change in tension from a contraction to phenylephrine: peptide 3 × 10^-6 M, mean ± SEM
Procedure: (§1) The results obtained are expressed as the means ±SEM. In organ chamber studies, n equals the number of dogs from which rings were taken. Rings with and without endothelium were studied in parallel, and Student's t-test for unpaired observations was used to determine statistical significance among the responses of rings with and without endothelium and between responses of arteries and veins. In rat studies, the data were analyzed using ANOVA for repeated measures followed by Fisher's least significant difference test when appropriate within the group. Data between groups were analyzed by Student's unpaired t-test. Statistical significance was determined at p<0.05.
Rings cut from femoral, saphenous, renal and pulmonary arteries and veins obtained from random source mongrel dogs (anesthetized with 30 mg/kg pentobarbital sodium intravenously) were suspended for the measurement of isometric force in organ chambers filled with aerated (95% O2 and 5% CO2) modified Krebs-Ringer bicarbonate solution (composition in mM: 118.3 NaCl, 4.7 KCl, 2.5 CaCl2, 1.2 MgSO4, 1.2 KH2 PO4, 25.0 NaHCO3, 0.026 calcium sodium EDTA, and 11.1 dextrose; control solution) at 37° C. In one-half rings, the endothelium was removed by gently rubbing the intimal surface with a cotton swab wetted with control solution. Each ring was stretched to the optimal point on its length-tension curve as determined by the tension developed to norepinephrine (3×10^-7 M) at each level of stretch. The presence of endothelium was determined at the beginning of the experiment by a relaxation to acetylcholine (10^-6 M) during a contraction to norepinephrine at optimal length. The maximal tension of each ring was determined by norepinephrine (10^-4 M). To study responses to ANP, CNP and VNP, the rings were contracted with phenylephrine (10^-6 M). These contractions averaged 30-40% of the maximal contraction to norepinephrine. The peptides were added cumulatively once the contraction had stabilized.
The following commercially available drugs were used: acetylcholine chloride (Sigma Chemical, St. Louis, Mo.), human ANP and human CNP (Peninsula Laboratories, Belmont, Calif.), L-norepinephrine bitartrate (Sigma), phenylephrine bitartrate (Sigma). All drugs were dissolved in distilled water immediately prior to study, and the concentrations are reported as the final molar concentration (M) in the organ chamber.

normal rats = test: Cardiorenal actions after intravenous bolus in anesthetized normal rats; assay type: in vivo, Wistar rats; settings: for MAP mean arterial pressure / HR heart rate / RAP right atrial pressure / UKV urine potassium excretion / UNaV urine sodium excretion / UV urine volume / UcGMPV urine cGMP volume / PcGMP plasma cGMP: mean ± SEM; for MAP mean arterial pressure: n = 4
Procedure: as §1
Experiments were conducted in accordance with the Animal Welfare Act. Wistar rats and spontaneously hypertensive rats (SHR) (400 g; Harlan Sprague-Dawley, Indianapolis, Ind.) were anesthetized with Inactin (100 mg/kg; intraperitoneal; BYK Gulden, Konstanz, Germany). The body temperature was maintained between 36° and 38° C. by a heating pad. Tracheostomy was performed; however, the animals were not artificially ventilated. Polyethylene catheters (PE-50; Becton Dickinson Co., Parsippany, N.J.) were placed in the left Jugular vein for infusions of saline and drugs, in the right jugular vein to right atrium to monitor right atrial pressure, and in the carotid artery for the collection of blood samples and to monitor mean arterial pressure. A PE-90 catheter was placed in the bladder for urine collection.
Experiments were conducted in three groups in normal rats: ANP group (n=4), CNP group (n=4), and VNP group (n=4). VNP also was studied in SHR rats (n=4). Intravenous infusions of saline solution (0.9% NaCl) were performed (1 ml/100 gm body weight/hr) through the left jugular vein catheter. After completion of surgery, rats were allowed to stabilize for 30 minutes. In each group, a 15-min baseline period followed. After the baseline period, saline solution (0.9% NaCl) was administered in a bolus fashion (0.1 ml) and was followed by a 15-min period. After the saline period, the peptide (ANP, CNP or VNP) was administered in a bolus fashion (0.1 ml) at 5 μg/kg which was followed by a 15-min period. This was followed by a second bolus (0.1 ml) at 50 μg/kg and a 15-min period. After a 30-min washout, a 15-min recovery period followed. During each experimental period, mean arterial pressure (MAP), heart rate (HR), and right atrial pressure (RAP) were measured. At the midpoint of baseline, second bolus fashion (50 μg/kg) and recovery periods, blood was sampled for plasma cGMP. At the end of each period, urine was measured for volume (UV), and samples were stored for electrolytes and cGMP analysis.
Blood for plasma cGMP analysis was collected into EDTA tubes, immediately placed on ice, and centrifuged at […] at 4° C. Plasma was separated and stored at -20° C. until assay. Urine for cGMP determination was heated to >90° C. before storage. Plasma and urine cGMP were determined by a specific RIA as previously described by A. L. Steiner et al., J. Hypertension, 5 (Suppl. 5) 551-553 (1987).

[2] = normal rats, high dose (50 μg/kg) bolus

SMILES: CC[C@H](C)[C@@H]1NC(=O)[C@H](CCCNC(=N)N)NC(=O)[C@H](CC(=O)O)NC(=O)[C@H](CCSC)NC(=O)[C@H](CCCNC(=N)N)NC(=O)CNC(=O)CNC(=O)[C@H](Cc2ccccc2)NC(=O)[C@@H](NC(=O)[C@H](CO)NC(=O)[C@H](CO)NC(=O)[C@H](CCCNC(=N)N)NC(=O)[C@H](CCCNC(=N)N)NC(=O)[C@H](CC(C)C)NC(=O)[C@@H](N)CO)CSSC[C@@H](C(=O)N[C@@H](CC(N)=O)C(=O)N[C@@H](CO)C(=O)N[C@@H](Cc2ccccc2)C(=O)N[C@@H](CCCNC(=N)N)C(=O)N[C@@H](Cc2ccc(O)cc2)C(=O)O)NC(=O)CNC(=O)[C@H](CC(C)C)NC(=O)CNC(=O)[C@H](CO)NC(=O)[C@H](CCC(N)=O)NC(=O)[C@H](C)NC(=O)CNC1=O [ANP, atrial natriuretic peptide]
- relaxation ([1]; femoral and saphenous arteries): no effects
- maximal response, percent change in tension from a contraction to phenylephrine ([1]; femoral artery, with endothelium, phenylephrine 10^-6 M): 10 ± 5%
- maximal response, percent change in tension from a contraction to phenylephrine ([1]; femoral artery, without endothelium): 19 ± 12%
- maximal response, percent change in tension from a contraction to phenylephrine ([1]; femoral vein, with endothelium): 6 ± 3%
- maximal response, percent change in tension from a contraction to phenylephrine ([1]; femoral vein, without endothelium): 4 ± 4%
- relaxation ([1]; femoral veins): no effect
- maximal response, percent change in tension from a contraction to phenylephrine ([1]; pulmonary artery, with endothelium): 60 ± 7%
- maximal response, percent change in tension from a contraction to phenylephrine ([1]; pulmonary artery, without endothelium): 75 ± 8%
- maximal response, percent change in tension from a contraction to phenylephrine ([1]; pulmonary vein, with endothelium): 49 ± 5%
- maximal response, percent change in tension from a contraction to phenylephrine ([1]; pulmonary vein, without endothelium): 16 ± 3%
- maximal response, percent change in tension from a contraction to phenylephrine ([1]; renal artery, with endothelium): 27 ± 6%
- maximal response, percent change in tension from a contraction to phenylephrine ([1]; renal artery, without endothelium): 30 ± 6%
- maximal response, percent change in tension from a contraction to phenylephrine ([1]; renal vein, with endothelium): 12 ± 3%
- maximal response, percent change in tension from a contraction to phenylephrine ([1]; renal vein, without endothelium): 11 ± 4%
- maximal response, percent change in tension from a contraction to phenylephrine ([1]; saphenous artery, with endothelium): 0 ± 0%
- maximal response, percent change in tension from a contraction to phenylephrine ([1]; saphenous artery, without endothelium): 3 ± 3%
- maximal response, percent change in tension from a contraction to phenylephrine ([1]; saphenous vein, with endothelium): 0 ± 0%
- maximal response, percent change in tension from a contraction to phenylephrine ([1]; saphenous vein, without endothelium): 0 ± 0%
- relaxation ([1]; saphenous veins): no effect
- relaxation, % of the contraction to phenylephrine ([1]; systemic arteries (femoral, saphenous and renal)): less than 30%
- natriuretic action (in words) (normal rats; in vivo, rat): potent natriuretic
- change in MAP and RAP (in words) (normal rats; [2]): significant decrease
- change in urine flow, sodium excretion, plasma cGMP and urinary cGMP volume (in words) (normal rats; [2]): increased
- MAP mean arterial pressure (normal rats; normal rats, iv bolus 5 μg/kg, 15-min period): 97 ± 12 mmHg
- HR heart rate (normal rats; normal rats, iv bolus 5 μg/kg): 353 ± 14 beats/min
- RAP right atrial pressure (normal rats; normal rats, iv bolus 5 μg/kg): -2.3 ± 0.8 mmHg
- UKV urine potassium excretion (normal rats; normal rats, iv bolus 5 μg/kg): 10.3 ± 3.5 µmol/min
- UNaV urine sodium excretion (normal rats; normal rats, iv bolus 5 μg/kg): 13.2 ± 3.5 µmol/min
- UV urine volume (normal rats; normal rats, iv bolus 5 μg/kg): 79 ± 10 µL/min
- UcGMPV urine cGMP volume (normal rats; normal rats, iv bolus 5 μg/kg): 605 ± 151 pmol/min
- HR heart rate (normal rats; normal rats, iv bolus 50 μg/kg): 355 ± 19 beats/min
- PcGMP plasma cGMP (normal rats; normal rats, iv bolus 50 μg/kg): 25.7 ± 7.1 pmol/mL
- RAP right atrial pressure (normal rats; normal rats, iv bolus 50 μg/kg): -3.8 ± 0.8 mmHg
- UKV urine potassium excretion (normal rats; normal rats, iv bolus 50 μg/kg): 24.4 ± 8.7 µmol/min
- UNaV urine sodium excretion (normal rats; normal rats, iv bolus 50 μg/kg): 68.2 ± 15.7 µmol/min
- UV urine volume (normal rats; normal rats, iv bolus 50 μg/kg): 341 ± 41 µL/min
- UcGMPV urine cGMP volume (normal rats; normal rats, iv bolus 50 μg/kg): 2580 ± 505 pmol/min
- MAP mean arterial pressure (normal rats; normal rats, recovery period after 30-min washout): 92 ± 11 mmHg
- HR heart rate (normal rats; normal rats, recovery period): 368 ± 23 beats/min
- PcGMP plasma cGMP (normal rats; normal rats, recovery period): 3.2 ± 0.3 pmol/mL
- RAP right atrial pressure (normal rats; normal rats, recovery period): -0.8 ± 0.9 mmHg
- UKV urine potassium excretion (normal rats; normal rats, recovery period): 2.4 ± 0.1 µmol/min
- UNaV urine sodium excretion (normal rats; normal rats, recovery period): 8.9 ± 3.5 µmol/min
- UV urine volume (normal rats; normal rats, recovery period): 48 ± 14 µL/min
- UcGMPV urine cGMP volume (normal rats; normal rats, recovery period): 105 ± 63 pmol/min
- MAP mean arterial pressure (normal rats; normal rats, second iv bolus 50 μg/kg, 15-min period): 69 ± 7 mmHg
